In patent publication US12264175B2, “Compositions and methods for capping RNAS” (Verve Therapeutics, Inc., priority 2020, dated 2025):

Assays:
T7 RNA polymerase = T7 RNA polymerase (Escherichia phage T7, UniProt P00573); assay: One-pot IVT preparation of 5′ capped mRNA (production yield, full-length purity); format: biochemical
Source text: The 5′ end initiator, 1007a, (FIG. 1A) was used to prepare capped mRNAs that encode for ABE and luciferase proteins. In this Example and for all others described herein, the ABE mRNA sequence was MA004 (SEQ. 0001) and the luciferase mRNA sequence was the Photinus pyralis (Firefly) luciferase sequence described in NCBI reference sequence XM_031473197.1. These mRNA can be produced by different methods well known in the art. One of such methods used herein was in vitro transcription (IVT) using T7 polymerase; or in other embodiments, additional RNA polymerase variants. This IVT reaction to produce mRNA used a linearized DNA template that comprised a T7 polymerase promoter and associated regulatory sequences, mRNA coding sequence (CDS), 3′ and 5′ untranslated regions (UTRs), poly A tail, and additional sequence elements to facilitate and modulate mRNA stability and in vivo performance. Prior to IVT, the DNA template was in the form of a plasmid; in other embodiments the DNA template is in the form of a PCR product, synthetic DNA product, or any other double-stranded DNA construct. Linearization of the DNA template with a restriction digestion enzyme was performed in order to promote run-off transcription. The typical IVT reaction included T7 polymerase, DNA template, RNase inhibitor, cap analog, inorganic pyrophosphatase, and the naturally occurring ribonucleoside triphosphates (NTPs) such as GTP, ATP, CTP, and N1-methyl pseudouridine triphosphosphate; in some embodiments NTPs include UTP or modified NTPs such as pseudouridine, 5′methyl cytidine, 5-methoxy uridine, N6-methyl adenosine, and N4-acetyl cytidine. The 1007a 5′ end initiator was added to the IVT reaction along with ATP, GTP, CTP, and N1-methyl pseudouridine triphosphate at a 1:1 initiator-to-NTP molar ratio and additional ratios described in Example 5 (B). Poly A tail was encoded in the DNA template that was added to the mRNA during transcription; in some instances, poly A tail is added to the mRNA after the IVT reaction using an RNA ligase enzyme. Finally, T7 RNA polymerase was added to the mixture and the IVT reaction was run at 37° C. for about 1-4 hours. After IVT, DNase was added to the transcription mixture to remove DNA template; in some instances, residual DNA is removed with chromatography. This mRNA was purified to remove residual reaction products and impurities, and stored in 1 mM citrate buffer. Characterization of production yield and mRNA full-length purity was performed by UV spectrometry and capillary gel electrophoresis methods, which are known in the art. […] Similar IVT and purification process are used to produce mRNA encoding SpCas9, Cas12b, CBE, and other ABEs; in all cases the DNA template, reaction conditions, and purification parameters are optimized for the specific gene of interest.
Similarly, ABE encoding mRNA with 5′ end region, 1107a, (FIG. 1B) was produced and characterized as described in the paragraph above.

mouse PCSK9 (mPCSK9) = assay: In vivo base editing in mouse with LNP of sgRNA and capped ABE mRNA (NGS editing efficiency); conditions: LNP with sgRNA targeting mPCSK9 and ABE mRNA; mice; FIG. 7
Experimental: Lipid nanoparticles (LNPs) are generated by microfluidic mixing using the Precision Nanosystems NanoAssemblr system according to the manufacturer's protocol, with some optimization for individual payloads. The resulting LNPs are filtered using 0.2-micron filters and stored at 4° C. or frozen at […]
LNPs used in these studies are prepared as described above in Example 6 (A), comprising chemically synthesized sgRNAs targeting the mouse ANGPTL3 (mANGPTL3) and/or mouse PCSK9 (mPCSK9) genes and SpCas9 or ABE8.8 mRNA in a 1:1 weight ratio, are administered to C57BL/6 mice (n=5) intravenously via the lateral tail vein or retro-orbital sinus in a total volume of 5-10 ml/kg. […]
Paired-end reads are analyzed with the CRISPResso2 pipeline (Clement, K. et al., Nat. Biotech. 2019, 37, 224-226). Briefly, low-quality reads are filtered out, adapter sequences are trimmed from the reads, and the paired-end reads are merged and aligned to the amplicon sequence. The editing percentage is calculated as the number of reads supporting […], over the total number of aligned reads. For ABE, the editing percentage is calculated as the number of reads supporting […], over the total number of aligned reads. […]

RIG-I = assay: Immune stimulation of capped mRNA in HEK-Lucia RIG-I cell reporter model; format: cell-based
Experimental: LNPs are prepared and administered in vivo to mice as in Example 11(A,B). Blood is collected at appropriate time points, typically at intervals between 1-48 hours post-dose and terminal end point, and processed to serum or plasma per techniques well known in the art. Serum or plasma cytokine and chemokine levels are measured using V-PLEX cytokine and chemokine detection kits. Cytokine and chemokine levels are compared to animals treated with buffer alone as well as pre-dose sampling of the treatment animals. In some instances, the immune stimulation of capped mRNA is assessed after in vitro transfection to reporter cell lines such as HEK-Lucia RIG-I cell reporter model, which produces luciferase signal in the presence of IFN-stimulated response elements such as uncapped mRNA. This cell model is cultured and transfected as described in Example 7, and luciferase activity is measured using a luciferase activity kit and plate reader. It is known in the art that uncapped mRNA produces a RIG-I-dependent IFN immune response, and capped mRNA lessens this immune stimulation. […] The results of this example were compared using mRNA made with a commercially available 5′ end initiator, 1002a, as a reference.

Sequence of T7 RNA polymerase (P00573 whole entry): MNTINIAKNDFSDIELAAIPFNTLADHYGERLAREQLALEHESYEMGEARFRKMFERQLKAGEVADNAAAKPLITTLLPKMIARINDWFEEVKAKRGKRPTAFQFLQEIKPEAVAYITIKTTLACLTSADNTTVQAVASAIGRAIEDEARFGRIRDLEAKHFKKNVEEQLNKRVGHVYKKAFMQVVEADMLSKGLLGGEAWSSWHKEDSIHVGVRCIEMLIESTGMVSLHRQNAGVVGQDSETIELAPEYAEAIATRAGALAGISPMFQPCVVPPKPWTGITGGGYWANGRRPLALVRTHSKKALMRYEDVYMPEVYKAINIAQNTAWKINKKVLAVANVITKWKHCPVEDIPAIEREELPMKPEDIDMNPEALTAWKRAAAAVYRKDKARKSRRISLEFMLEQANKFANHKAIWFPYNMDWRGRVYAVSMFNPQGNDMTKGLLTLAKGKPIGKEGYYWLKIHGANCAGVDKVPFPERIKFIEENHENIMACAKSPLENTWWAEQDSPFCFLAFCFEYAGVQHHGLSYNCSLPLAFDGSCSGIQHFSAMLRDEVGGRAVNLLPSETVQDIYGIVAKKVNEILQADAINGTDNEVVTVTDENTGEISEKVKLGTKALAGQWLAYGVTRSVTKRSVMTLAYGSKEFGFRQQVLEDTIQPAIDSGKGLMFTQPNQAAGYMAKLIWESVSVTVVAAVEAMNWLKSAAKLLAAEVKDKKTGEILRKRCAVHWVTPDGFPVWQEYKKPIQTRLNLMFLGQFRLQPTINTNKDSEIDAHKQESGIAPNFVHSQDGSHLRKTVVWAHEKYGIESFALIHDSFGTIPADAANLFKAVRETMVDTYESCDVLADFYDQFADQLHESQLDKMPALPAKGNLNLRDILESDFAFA

For `COC1C(OP([O-])(=S)OCC2OC(n3cnc4c(=O)[nH]c(N)nc43)C(O)C2O)C(COP(=O)(O)OP(=O)(O)OP(=O)(O)OCC2OC(n3c[n+](C)c4c(=O)[nH]c(N)nc43)C(O)C2O)OC1n1cnc2c(N)ncnc21` (stereo not drawn) [1007a, m^7G(ppp)Am(ps)G], the “final production yield of mRNA” value (T7 RNA polymerase; ABE encoding mRNA made with the 5′ end initiator, T7 IVT, FIG. 2) was “about 3.3 mg per 1 ml of IVT reaction”, the mRNA full-length purity (T7 RNA polymerase; ABE encoding mRNA made with the 5′ end initiator, capillary gel electrophoresis, FIG. 3) was “about 88%” and the “amount of full-length mRNA produced” value (T7 RNA polymerase; initiator-to-NTP ratio ranging from 1:1 down to 1:5, FIG. 3) was “did not reduce”. For the same compound, the “hepatocyte editing levels as compared to mRNA with 5′ end region motif 1002a” value (mouse PCSK9 (mPCSK9)) was “similar”, the “RIG-I activity as compared to uncapped mRNA” value (RIG-I; mRNA with the 5′ end motif, FIG. 8) was “reduced” and the “RIG-I activation as a result of the chemical modifications to the cap structure” value (RIG-I; reference mRNA made with 1002a) was “did not appear to increase”.
